{"source": "patent US8455469B2", "about": "“Use of norgestimate as a selective inhibitor of TRPC3, TRPC6 and TRPC7 ion channels” (Sanofi, priority 2007, dated 2013)", "key": {"TRPC4": {"biological_target": "T1, TRPC4 (Homo sapiens, UniProt Q9UBN4)", "T1 construct": "expressed in transfected cells; host or cells: HEK293 (inducible expression)", "T1 sequence (Q9UBN4 1-977)": "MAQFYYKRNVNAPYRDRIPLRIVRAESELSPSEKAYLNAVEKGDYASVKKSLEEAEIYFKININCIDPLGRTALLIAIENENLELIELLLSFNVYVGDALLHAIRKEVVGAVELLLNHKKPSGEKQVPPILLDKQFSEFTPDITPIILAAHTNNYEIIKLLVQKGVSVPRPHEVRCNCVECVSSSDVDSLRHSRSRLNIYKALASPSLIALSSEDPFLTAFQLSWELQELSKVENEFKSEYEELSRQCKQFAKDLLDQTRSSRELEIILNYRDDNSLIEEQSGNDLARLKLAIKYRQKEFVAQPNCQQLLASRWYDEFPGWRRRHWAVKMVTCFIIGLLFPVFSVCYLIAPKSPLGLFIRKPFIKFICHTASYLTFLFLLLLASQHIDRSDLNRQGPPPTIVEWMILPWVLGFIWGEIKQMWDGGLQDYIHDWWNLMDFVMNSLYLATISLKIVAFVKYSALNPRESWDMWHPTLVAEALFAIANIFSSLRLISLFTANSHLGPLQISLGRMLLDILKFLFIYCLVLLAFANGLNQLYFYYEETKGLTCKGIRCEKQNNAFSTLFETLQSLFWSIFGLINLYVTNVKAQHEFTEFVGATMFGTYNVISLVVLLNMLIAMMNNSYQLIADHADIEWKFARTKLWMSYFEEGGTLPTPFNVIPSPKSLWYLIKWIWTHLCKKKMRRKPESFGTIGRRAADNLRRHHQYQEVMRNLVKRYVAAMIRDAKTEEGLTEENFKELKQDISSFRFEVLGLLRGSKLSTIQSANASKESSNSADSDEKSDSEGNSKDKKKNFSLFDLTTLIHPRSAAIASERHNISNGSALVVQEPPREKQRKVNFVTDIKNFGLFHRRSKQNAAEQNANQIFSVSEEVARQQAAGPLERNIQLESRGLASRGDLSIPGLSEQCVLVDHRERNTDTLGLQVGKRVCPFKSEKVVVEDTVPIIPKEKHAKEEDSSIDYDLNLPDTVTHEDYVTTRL", "test": "FLIPR Ca2+ influx measurement, trypsin-stimulated TRPC4 HEK293 cells", "type": "cell-based", "conditions": "200 nM trypsin", "source_text": "In general, cells are provided which express a TRPC channel. Such cells can be produced using genetic methods known to a person skilled in the art. After having induced the expression of the TRPC channel, cells are usually plated into e.g. microtiter plates and grown. Usually the cells grow at the bottom of multiwell plates and are fixed. Thereafter, the cells are generally washed and loaded with a dye in a suitable loading buffer, preferably with a fluorescent dye such as fluo4am. After having removed the loading buffer, the cells are incubated with the test compound or modulator, in particular with a biochemical or chemical test compound as described above, e.g. in the form of a chemical compound library. Ca^2+ measurements can be carried out using e.g. a Fluorescence Imaging Plate Reader (FLIPR). To stimulate Ca^2+ influx through the TRPC channel a channel activator such as OAG should generally be applied.\nWhen these experiments were performed, no direct physiological stimuli of TRPC4 and TRPC5 were known. Therefore, both channels had to be stimulated indirectly, e.g. by application of trypsin, a protease-activated receptor (PAR) stimulating protease. […] Kinetics and quantity of calcium store release in cells treated with 30 μM norgestimate were not changed compared to untreated cells. […]"}, "[1]": {"system": "protease-activated receptor (PAR)", "test": "Calcium release from ER in non-induced TRPC5 HEK293 FITR cells (PAR antagonism control)", "type": "cell-based", "conditions": "30 μM norgestimate, 10 min preincubation", "description": "When these experiments were performed, no direct physiological stimuli of TRPC4 and TRPC5 were known. Therefore, both channels had to be stimulated indirectly, e.g. by application of trypsin, a protease-activated receptor (PAR) stimulating protease. […] PAR are G protein-coupled and their activation leads to calcium store depletion from endoplasmic reticulum (ER). This so called phosphatidylinositol (PI) response is independent of the channel's presence but consequently leads to activation of store-operated channels like TRPC4 and TRPC5. Basic prerequisite to measure the effect of norgestimate on both channels under these conditions is to exclude PAR antagonism of this potential channel inhibitor. […] Kinetics and quantity of calcium store release in cells treated with 30 μM norgestimate were not changed compared to untreated cells. Therefore, norgestimate is not a PAR antagonist and TRPC4 and TRPC5 activation via PAR stimulation is suitable to measure the channels inhibition by norgestimate."}}, "note": "“Also recorded” adds a separate entry of the source."}
{"compound": "C#C[C@]1(OC(C)=O)CC[C@H]2[C@@H]3CCC4=C/C(=N/O)CC[C@@H]4[C@H]3CC[C@@]21CC", "note": "[norgestimate, D-17β-acetoxy-B-ethyl-17α ethinyl-gon-4-en-3-one oxime]", "values": [{"measurement": "inhibitory effect on TRPC4-mediated Ca2+ influx", "setting": "TRPC4; 30 μM norgestimate", "value": "only small inhibitory effects; also recorded: slightly reduced"}, {"measurement": "IC50", "setting": "TRPC4; FLIPR, n=2", "value": "> 30", "unit": "µM"}, {"measurement": "kinetics and quantity of calcium store release compared to untreated cells", "setting": "[1]", "value": "not changed"}]}
